Measured values from patent publication US12435091B2, “RNA-binding protein multimerization inhibitors and methods of use thereof” (THE UAB RESEARCH FOUNDATION, priority 2020, dated 2025).

Columns and labels:
Type in all cases: cell-based
[1] = test system: Primary human neuronal cells; assay: cytotoxicity in primary human neurons (morphology, cell number, metabolism, cleaved caspase-3)
Source text: PrestoBlue cell viability reagent (ThermoFisher Scientific; Waltham, MA) was used for cell viability assays. The inhibitory dose-response data were normalized to the control (treatment with vehicle); the inhibitory dose-response curves, which were fitted by using Boltzmann equation, and the corresponding IC50s were generated by using OriginPro software (OriginLab Corporation, CA).
At the end of experiments, neurons and astrocytes were rinsed briefly with PBS and fixed by using 4% paraformaldehyde, pH 7.4 for 13 minutes at room temperature. Triton X-100 (0.3%) in PBST buffer (i.e., PBS with 0.1% Tween 20) was used for cell permeabilization for 30 minutes at room temperature. Cells were rinsed with PBST buffer 3 times for 10 minutes after fixation. Blocking buffer (3% BSA, 22.52 mg/ml glycine in PBST) was used to block unspecific antibody binding for 30 minutes at room temperature. Primary cleaved caspase 3 antibody (Cell Signaling Technology; Danvers, MA) at 1:200 dilution in PBST buffer with 1% BSA was utilized overnight at 4° C. for cleaved caspase 3 staining. The next day, cells were rinsed four times for 10 minutes with PBST buffer and then were incubated with secondary antibody (Alexa Fluor 594, goat anti-rabbit IgG, Invitrogen (Carlsbad, CA), 1:2000/5000 dilution) in PBST buffer with 1% BSA for 1 hour at room temperature in the dark. Next, cells were rinsed with PBST buffer 4 times for 10 minutes in the dark. Cell nucleus were stained with DAPI (4′,6-diamidino-2-phenylindole). Cell images were obtained with EVOS Fl (Life Technologies; Eugene, OR) imaging system.
The cellular metabolism declined by about 44% after treatment with SRI-42127, 25 uM for 48 hours as shown by FIG. 5E. […] Therefore, compound SRI-42127 inhibited glioma cell growth and had low neuronal and astrocyte cytotoxicity at concentrations below 15 uM.

[2] = test system: JX12p neurospheres, HuR mRNA targets; assay: Illumina global RNA-sequencing of PDGx neurospheres; settings: 3 uM, 12 hours, compared to control
Protocol: (§1) Illumina global RNA-sequencing data were generated by utilizing PDGx neurospheres, which have been treated with a compound as described herein (e.g., SRI-42127, 3 uM) for 12 hours or with vehicle as the control. RNA was isolated by using TRIzol reagent (Invitrogen; Carlsbad, CA). The RNA samples were processed.
(§2) RNA sequencing was performed on PDGx-derived glioma neurospheres representing the different molecular subtypes (classical, neuronal, and mesenchymal) after treatment with vehicle (control) or SRI-42127 (3 uM) for 12 hours. Analysis of direct HuR mRNA targets and their corresponding cell signaling pathways was performed. Table 9 illustrates the evaluated gene sets, representing direct HuR mRNA targets, and their corresponding cell signaling pathways.
(§3) The analysis of direct HuR mRNA targets and their corresponding cell signaling pathways has been performed by using gene sets, which have been defined as the direct HuR targets following tumor neurosphere treatment with DHTS, an established modulator of HuR/mRNA interaction (Lal et al., Nucleic Acid Research, 2017). […] Data are represented as average+standard deviation (Aver+SD). The significance was evaluated by using Student t-test.
(§4) The analysis was generated based on RNA-Seq data.

[3] = test system: JX22p neurospheres, HuR mRNA targets; assay: as above; settings: 3 uM, 12 hours, compared to control
Protocol: as §1, §2, §3, §4

[4] = test system: X14P neurospheres, HuR mRNA targets; assay: as above; settings: 3 uM, 12 hours, compared to control
Protocol: as §1, §2, §3, §4

CN(c1ccc2ncc(-c3ccc4cn[nH]c4c3)n2n1)C1CCOCC1 [Compound 19]
decline of cellular metabolism ([1]; 25 uM for 48 hours): about 44%
cleaved caspase-3 immunostaining ([1]; neurons, up to 15 uM, 48 hours): no significant alterations
morphological changes of neurons ([1]; up to 15 uM for 48 hours): no morphological changes
neuron cell numbers and cell sprouting ([1]; up to 15 uM for 48 hours, listed as SRI-42127): remained unchanged
gene set average value, Activation of BH3-only proteins Homo sapiens_R-HSA-114452 [2]: 0.90
gene set average value, Cell Cycle Check points_Homo Sapiens_R-HSA-69620 [2]: 0.58
gene set average value, Cell Cycle, Mitotic_Homo Sapiens_R-HSA-69278 [2]: 0.58
gene set average value, Cell Cycle_Homo sapiens_R-HSA-1640170 [2]: 0.57
gene set average value, Cell cycle_Homo Sapiens_hsa04110 [2]: 0.64
gene set average value, Cellular Senescence_Homo sapiens_R-HSA-2559583 [2]: 0.74
gene set average value, Cellular responses to Stress_Homo sapiens_R-HSA-2262752 [2]: 0.61
gene set average value, Deadenylation-dependent mRNA decay_Homo sapiens_R-HSA-429914 [2]: 0.71
gene set average value, Developmental Biology_Homo sapiens_R-HSA-1266738 [2]: 0.52
gene set average value, Epstein-Barr virus Infection_Homo Sapiens_hsa05169 [2]: 0.63
gene set average value, G2/M Check points_Homo sapiens_R-HSA-69481 [2]: 0.60
gene set average value, G2/M DNA damage Checkpoint_Homo sapiens_R-HSA-69473 [2]: 0.61
gene set average value, Gene Expression_Homo Sapiens_R-HSA-2559583 [2]: 0.78
gene set average value, HTLV-1 infection_Homo Sapiens_hsa05186 [2]: 0.67
gene set average value, Intrinsic Pathway for Apoptosis_Homo sapiens_R-HSA-109606 [2]: 0.90
gene set average value, MAPK signaling Pathway_Homo Sapiens_hsa04010 [2]: 0.63
gene set average value, Membrane Trafficking_Homo sapiens_R-HAS-199991 [2]: 0.62
gene set average value, Mitotic G1-G1/S phases_Homo sapiens_R-HSA-453279 [2]: 0.58
gene set average value, P53 signaling pathway_Homo Sapiens_hsa04115 [2]: 1.21
gene set average value, RHO GTPases Activate Formins_Homo sapiens_R-HSA-5663220 [2]: 0.48
gene set average value, RHO GTPases Effectors_Homo sapiens_R-HSA-195258 [2]: 0.50
gene set average value, RNA degradation_Homo Sapiens_hsa03018 [2]: 0.78
gene set average value, Regulation of TP53 Activity through Phosphorylation_Homo sapiens_R-HSA-6804756 [2]: 0.63
gene set average value, Regulation of TP53 Activity_Homo sapiens_R-HSA-109606 [2]: 0.89
gene set average value, Signaling by Rho GTPases_Homo sapiens_R-HSA-194315 [2]: 0.49
gene set average value, TP53 Regulates Metabolic Genes_Homo sapiens_R-HSA-5628897 [2]: 0.87
gene set average value, Transcriptional Regulation by TP53_Homo sapiens_R-HSA-3700989 [2]: 0.93
gene set average value, Translocation of GLUT4 to the plasma membrane_Homo sapiens_R-HSA-1445148 [2]: 0.71
gene set average value, Activation of BH3-only proteins Homo sapiens_R-HSA-114452 [3]: 0.42
gene set average value, Cell Cycle Check points_Homo Sapiens_R-HSA-69620 [3]: 0.35
gene set average value, Cell Cycle, Mitotic_Homo Sapiens_R-HSA-69278 [3]: 0.32
gene set average value, Cell Cycle_Homo sapiens_R-HSA-1640170 [3]: 0.36
gene set average value, Cell cycle_Homo Sapiens_hsa04110 [3]: 0.37
gene set average value, Cellular Senescence_Homo sapiens_R-HSA-2559583 [3]: 0.28
gene set average value, Cellular responses to Stress_Homo sapiens_R-HSA-2262752 [3]: 0.27
gene set average value, Deadenylation-dependent mRNA decay_Homo sapiens_R-HSA-429914 [3]: 0.31
gene set average value, Developmental Biology_Homo sapiens_R-HSA-1266738 [3]: 0.32
gene set average value, Epstein-Barr virus Infection_Homo Sapiens_hsa05169 [3]: 0.43
gene set average value, G2/M Check points_Homo sapiens_R-HSA-69481 [3]: 0.39
gene set average value, G2/M DNA damage Checkpoint_Homo sapiens_R-HSA-69473 [3]: 0.39
gene set average value, Gene Expression_Homo Sapiens_R-HSA-2559583 [3]: 0.37
gene set average value, HTLV-1 infection_Homo Sapiens_hsa05186 [3]: 0.47
gene set average value, Intrinsic Pathway for Apoptosis_Homo sapiens_R-HSA-109606 [3]: 0.42
gene set average value, MAPK signaling Pathway_Homo Sapiens_hsa04010 [3]: 0.31
gene set average value, Membrane Trafficking_Homo sapiens_R-HAS-199991 [3]: 0.28
gene set average value, Mitotic G1-G1/S phases_Homo sapiens_R-HSA-453279 [3]: 0.36
gene set average value, P53 signaling pathway_Homo Sapiens_hsa04115 [3]: 0.24
gene set average value, RHO GTPases Activate Formins_Homo sapiens_R-HSA-5663220 [3]: 0.26
gene set average value, RHO GTPases Effectors_Homo sapiens_R-HSA-195258 [3]: 0.30
gene set average value, RNA degradation_Homo Sapiens_hsa03018 [3]: 0.35
gene set average value, Regulation of TP53 Activity through Phosphorylation_Homo sapiens_R-HSA-6804756 [3]: 0.34
gene set average value, Regulation of TP53 Activity_Homo sapiens_R-HSA-109606 [3]: 0.31
gene set average value, Signaling by Rho GTPases_Homo sapiens_R-HSA-194315 [3]: 0.30
gene set average value, TP53 Regulates Metabolic Genes_Homo sapiens_R-HSA-5628897 [3]: 0.30
gene set average value, Transcriptional Regulation by TP53_Homo sapiens_R-HSA-3700989 [3]: 0.31
gene set average value, Translocation of GLUT4 to the plasma membrane_Homo sapiens_R-HSA-1445148 [3]: 0.40
gene set average value, Activation of BH3-only proteins Homo sapiens_R-HSA-114452 [4]: 1.03
gene set average value, Cell Cycle Check points_Homo Sapiens_R-HSA-69620 [4]: 0.77
gene set average value, Cell Cycle, Mitotic_Homo Sapiens_R-HSA-69278 [4]: 0.80
gene set average value, Cell Cycle_Homo sapiens_R-HSA-1640170 [4]: 0.74
gene set average value, Cell cycle_Homo Sapiens_hsa04110 [4]: 0.99
gene set average value, Cellular Senescence_Homo sapiens_R-HSA-2559583 [4]: 0.99
gene set average value, Cellular responses to Stress_Homo sapiens_R-HSA-2262752 [4]: 0.74
gene set average value, Deadenylation-dependent mRNA decay_Homo sapiens_R-HSA-429914 [4]: 1.03
gene set average value, Developmental Biology_Homo sapiens_R-HSA-1266738 [4]: 0.65
gene set average value, Epstein-Barr virus Infection_Homo Sapiens_hsa05169 [4]: 1.0
gene set average value, G2/M Check points_Homo sapiens_R-HSA-69481 [4]: 0.82
gene set average value, G2/M DNA damage Checkpoint_Homo sapiens_R-HSA-69473 [4]: 0.82
gene set average value, Gene Expression_Homo Sapiens_R-HSA-2559583 [4]: 0.95
gene set average value, HTLV-1 infection_Homo Sapiens_hsa05186 [4]: 0.89
gene set average value, Intrinsic Pathway for Apoptosis_Homo sapiens_R-HSA-109606 [4]: 1.03
gene set average value, MAPK signaling Pathway_Homo Sapiens_hsa04010 [4]: 1.0
gene set average value, Membrane Trafficking_Homo sapiens_R-HAS-199991 [4]: 0.86
gene set average value, Mitotic G1-G1/S phases_Homo sapiens_R-HSA-453279 [4]: 1.00
gene set average value, P53 signaling pathway_Homo Sapiens_hsa04115 [4]: 1.9
gene set average value, RHO GTPases Activate Formins_Homo sapiens_R-HSA-5663220 [4]: 0.62
gene set average value, RHO GTPases Effectors_Homo sapiens_R-HSA-195258 [4]: 0.70
gene set average value, RNA degradation_Homo Sapiens_hsa03018 [4]: 1.97
gene set average value, Regulation of TP53 Activity through Phosphorylation_Homo sapiens_R-HSA-6804756 [4]: 0.58
gene set average value, Regulation of TP53 Activity_Homo sapiens_R-HSA-109606 [4]: 0.94
gene set average value, Signaling by Rho GTPases_Homo sapiens_R-HSA-194315 [4]: 0.65
gene set average value, TP53 Regulates Metabolic Genes_Homo sapiens_R-HSA-5628897 [4]: 1.03
gene set average value, Transcriptional Regulation by TP53_Homo sapiens_R-HSA-3700989 [4]: 1.04
gene set average value, Translocation of GLUT4 to the plasma membrane_Homo sapiens_R-HSA-1445148 [4]: 0.92
